Source: patent US20250290080A1, “METHODS TO PREVENT RAPID SILENCING OF GENES IN PLURIPOTENT STEM CELLS” (FUJIFILM Cellular Dynamics, Inc., priority 2021, published 2025)
Numbering of substitutions follows the chain as printed. Entries after “also recorded” stand apart in the source; their conditions may differ.

B1: CpG-free PuroRv1: CpG-free puromycin resistance gene sequence, SEQ ID NO:15 (nucleic acid)
DNA: ATGACTGAATACAAACCAACTGTTAGACTGGCAACTAGAGATGATGTTCCAAGAGCAGTTAGAACCCTGGCTGCTGCATTTGCTGACTACCCTGCAACCAGACACACTGTGGACCCAGACAGACACATTGAAAGAGTGACTGAACTGCAGGAGCTGTTCCTGACCAGAGTGGGCCTGGACATTGGCAAAGTGTGGGTGGCAGATGATGGTGCTGCTGTGGCAGTGTGGACCACCCCTGAATCTGTTGAAGCTGGTGCAGTGTTTGCTGAGATTGGCCCAAGAATGGCAGAACTGTCTGGCAGCAGACTGGCAGCACAACAGCAGATGGAAGGTCTGCTGGCACCACACAGACCAAAAGAACCTGCTTGGTTCCTGGCAACTGTGGGTGTGAGCCCTGACCACCAGGGTAAGGGCCTGGGCTCTGCAGTGGTGCTGCCTGGTGTGGAAGCAGCTGAAAGAGCAGGTGTGCCTGCTTTCCTGGAGACCTCAGCTCCAAGAAACCTGCCTTTCTATGAAAGACTGGGCTTCACTGTGACTGCTGATGTGGAAGTGCCAGAAGGCCCAAGAACTTGGTGCATGACTAGAAAACCAGGTGCTTGATAATGA
modifications: misc_feature 1..606 Synthetic promotor sequence
B2: PuroRv2: CpG-free puromycin resistance gene version 2, SEQ ID NO:16 (nucleic acid)
DNA: B1 DNA with G550T, T551G, G552C, G556A, A558G, G560A, C562A, C563G, A565G, G566C
modifications: misc_feature 1..606 Synthetic promotor sequence

Assays:
[1] = system: silenced CpG-free AcGFP1 clones; assay: NaBut treatment of silenced CpG-free AcGFP1 clones, % GFP expression by flow cytometry; assay type: cell-based
Protocol: FIGS. 5A-5B: Silenced transgene be reactivated with NaBut treatment. A small number of cells were silenced in the CpG-free AcGPF1 cultures (<3% of cells, FIG. 3A). These silenced cells were single cell sorted and expanded to further investigate their silencing and research methods for overcoming the silencing. Two months after sorting for no GFP expression, silenced CpG-free AcGFP1 clones were treated with 1 mM, 0.5 mM, or 1 μM of NaBut. […] After a successful pilot experiment, the duration of NaBut treatment was increased to 46 days with NaBut treatment doses of 0.25 mM and 0.5 mM and the GFP expression levels were monitored over time by fluorescent microscopy and flow cytometry. The initial results were confirmed (FIGS. 5A and 5B, dark blue bar: day 8 of treatment).
However, after 5 months, a small percentage of cells were detected with no GFP expression (3%) even though the CpGs had been removed from AcGFP1. To investigate this population, clones were isolated by single cell sorting for no GFP expression. The cells were treated with sodium butyrate (NaBut), a histone deacetylase (HDAC) inhibitor capable of removing chromatin structure and inducing demethylation.

[2] = system: iPSC-derived neuronal cells; assay: ZsGreen expression after neuronal differentiation protocol, day 21 flow cytometry; assay type: cell-based, human; conditions: day 21 of differentiation
Text: (§1) Differentiation: In order to determine the stability of expression post-differentiation, the engineered lines were subjected to differentiation protocols to direct them toward either neuronal or cardiac cell types.

[3] = system: iPSC line 01279.107; assay: ZsGreen expression in engineered iPSC lines in long-term culture, flow cytometry; assay type: cell-based, human; conditions: for ZsGreen expression in iPSC over time: culture up to seven months, E8 media/vitronectin
Text: ZsGreen Constructs Integrated at the AAVS1 Safe Harbor Locus: To examine longer term expression driven by the candidate promoters in a chromosomal context, they were cloned into plasmids controlling ZsGreen fluorescent protein and targeted to the AAVS1 safe harbor locus on chromosome 19 in human iPSC (plasmid design is shown below using the CAG promoter as an example). […] Correctly targeted heterozygous clones were expanded.
Genomic Loci Suitable for Tagging to Yield Constitutive Expression: In addition to promoter-driven expression from a safe harbor, specific genes expressed in most cell-types can be tagged with a reporter gene to give constitutive expression. The genes HSP90AB1, ACTB, CTNNB1, and MYL6 were chosen for evaluation and were tagged with ZsGreen and an F2A cleavage sequence via TALEN-mediated gene editing. Correctly targeted heterozygous clones were expanded.
ZsGreen expression in iPSC: Engineered iPSC lines expressing ZsGreen fluorescent protein were maintained in culture for up to seven months (E8 media/vitronectin coated plates) and periodically checked for green expression using flow cytometry on an Accuri C6 instrument (BD).

[4] = system: iPSC-derived cardiac cells; assay: ZsGreen expression after cardiac differentiation protocol, day 21 flow cytometry; assay type: cell-based, human; conditions: day 21 of differentiation
Text: as §1

[5] = system: iPSC line 01279.107; assay: Luciferase expression during transient transfection of promoter-pGL3 plasmids (Dual-Luciferase Reporter Assay); assay type: cell-based, human; conditions: assayed one day later
Text: Promoters cloned: The following promoters were identified as being likely candidates for constitutive expression in all cell types. Some were cloned from existing plasmids (CAG, PGK, UBC-version1, EEF1A1, ACTB). […] The new promoters include RPS19, UBA52, HSP90AB1, an enlarged region of UBC (version 2), UBB, RPSA, NACA, and COX8A. Sequences were cloned into the pGL3 plasmid vector (replacing the SV40 promoter between MluI and NcoI restriction sites) to enable a comparison of promoter strength when driving the luciferase reporter gene.
Luciferase expression during transient transfection: Transient transfection was performed of the promoter-pGL3 plasmids into iPSCs to determine the strength of expression. Using a 96wp format, 50 uL of E8 media+10 uM blebbistatin was added to each well. Each plasmid was assayed in triplicate by adding 16.5 uL of the following reagent preparation. One well of a 6wp of iPSC line 01279.107 was harvested using Accutase, resuspended in 3.5 mL E8 media+10 uM blebbistatin, and 50 uL was added to each well. One day later the cells were assayed using the Dual-Luciferase Reporter Assay System (Promega).
Expression values at or above the level of the PGK promoter were desired so RPS19, UBA52, HSP90AB1, and UBC were selected for further study.

[6] = system: iPSCs; assay: Fluorescent protein transgene expression over time in engineered iPSCs (PPP1R12C/AAVS1 locus); assay type: cell-based
Text: FIGS. 1A-1D: ZsGreen expression driven by EEF1A1p is mottled in iPSCs. iPSCs 01278.103 (FIG. 1A, 1B) and 01279.107 (FIG. 1C, 1D) were engineered with EEF1A1p-ZsGreen at the PPP1R12C locus. Brightfield and Fluorescence (GFP) microscopy were used to capture the GFP expression in the cells 11 passages post-engineering (FIGS. 1A-1B) or 18 passages post-engineering (FIGS. 1C-1D).
The percent GFP expression in five clones targeted with EEF1A1p-CpG-free-AcGFP1 (FIG. 3A) and nine clones targeted with EEF1A1p-AcGFP1 (FIG. 3B) at the AAVS1 locus was monitored overtime.
FIGS. 4A-4C: Rapid silencing of AcGFP1 in iPSCs. Depiction of engineering iPSCs at the PPP1R12C locus (AAVS1 safe harbor) with three cassettes EEF1A1p-mRFP1+PGKp-Puro, EEF1A1p-AcGFP1 or EEF1A1p-CpG-Free AcGFP1. Noted within the figure are the engineered iPSC ID numbers for cell lines 8717 and 9650 which are used in further experiments throughout the document (FIG. 4A). […] After two months in culture, AcGFP1 engineered iPSCs were bulk sorted for AcGFP1 expression. Brightfield and Fluorescence (GFP) microscopy was used to capture the GFP expression in the cells 12 days post-sorting (FIG. 4B) or 23 days post-sorting (FIG. 4C).
The EEF1A1 promoter was used for expression of AcGFP1 in iPSCs at the PPP1R12C locus.

[7] = system: iPSC line 2.038; assay: Drug resistance of iPSC line 2.038 transfected with WT PuroR vs. CpG-free PuroR plasmids; assay type: cell-based; conditions: cassette introduced into iPSCs by electroporation
Text: The CpG-free PuroR cassette was introduced into iPSCs by electroporation.

Molecule | ZsGreen fluorescence after neuronal differentiation [2] | ZsGreen expression in iPSC over time [3] | ZsGreen expression after cardiac differentiation [4] | other results
CCCC(=O)[O-].[Na+] [NaBut, sodium butyrate] | – | – | – | effect on GFP expression levels over time ([1]; 0.25 mM and 0.5 mM NaBut, 46 days): dose dependent effect; reactivation of GFP expression ([1]; 1 mM, 0.5 mM, or 1 μM NaBut, nine days, flow cytometry): dose dependent reactivation; also recorded: dose-dependent reactivation
RPS19: RPS19 promoter, SEQ ID NO:2 | tight and stable expression | stable iPSC expression over four months | varying amounts of expression silencing | ZsGreen expression in iPSC at seven months ([3]; out to seven months in culture): some silencing
HSP90AB1del400 promoter: HSP90AB1 promoter with 417 bp deletion between two ClaI sites, SEQ ID NO:4 | many cells with diminishing fluorescence | stable iPSC expression over four months | varying amounts of expression silencing | Normalized luciferase (Firefly/Renilla ratio, normalized to EEF1A1=100%) [5]: around 66%
AcGFP1: Aequorea coerulescens green fluorescence protein DNA sequence, SEQ ID NO:13 [reference compound] | – | – | – | cells with no GFP expression (silenced) ([6]; CpG-free AcGFP1 cultures, after 5 months): 3%; stability of fluorescent protein expression over time ([6]; EEF1A1 promoter, PPP1R12C (AAVS1) locus, iPSCs in culture): not maintained overtime; also recorded: did not retain consistent expression
UBA52: UBA52 promoter, SEQ ID NO:3 | tight and stable expression | stable iPSC expression over four months | tight and stable expression | –
HSP90AB1 promoter: HSP90AB1 promoter, SEQ ID NO:5 | – | – | – | Normalized luciferase (Firefly/Renilla ratio, normalized to EEF1A1=100%) [5]: ~75%
B1 | – | – | – | drug resistance conferred [7]: capable of conferring drug resistance
B2 | – | – | – | drug resistance conferred [7]: capable of conferring drug resistance
